One series deals with CAXIII (Homo sapiens, UniProt Q8N1Q1). Kind of series: biochemical. Particulars: FTSA.
A further series addresses T1, CAXII (Homo sapiens, UniProt O43570).
T1 construct: made in house; host or cells: E. coli
Kind of series: biochemical. Particulars: FTSA. In kind it is binding.

The target of the next series is T2, CAII (Homo sapiens, UniProt P00918).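 Note: recombinant human CAII, thermal shift with ANS dye fluorescence, Kd_obs from fitting melting temperature versus ligand concentration, intrinsic values corrected for deprotonated sulfonamide and Zn-bound water fractions.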
T2 construct: made in house; host or cells: E. coli
The experiment in a line: biochemical. In kind it is binding. Particulars: FTSA.

The target in the next series is T3, CAI (Homo sapiens, UniProt P00915).
T3 construct: made in house; host or cells: E. coli
T3 sequence (P00915 whole entry): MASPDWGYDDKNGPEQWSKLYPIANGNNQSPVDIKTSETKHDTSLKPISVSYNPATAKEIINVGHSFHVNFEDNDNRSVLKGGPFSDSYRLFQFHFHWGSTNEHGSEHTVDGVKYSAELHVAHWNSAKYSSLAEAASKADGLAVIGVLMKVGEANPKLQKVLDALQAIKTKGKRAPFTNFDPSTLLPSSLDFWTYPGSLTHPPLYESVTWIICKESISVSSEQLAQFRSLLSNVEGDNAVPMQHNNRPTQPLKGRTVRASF
Kind of series: biochemical. Particulars: FTSA. The class given is binding.

The next series concerns the target T4, CAIX (Homo sapiens, UniProt Q16790).
T4 construct: made in house
The experiment in a line: biochemical. In kind it is binding. Particulars: FTSA.

Where [1] appears, read: Observed Dissociation Constant (Kd_obs), pH 7.0, 37 °C.
Setting [2] is: pH 7.0, 37 °C, read-out: Observed Dissociation Constant (Kd_obs), CAXII.
[3] abbreviates: pH 7.0, 37 °C, read-out: Observed Dissociation Constant (Kd_obs), CAII.
[4] abbreviates: pH 7.0, 37 °C, read-out: Observed Dissociation Constant (Kd_obs), CAI.
[5] abbreviates: pH 7.0, 37 °C, read-out: Observed Dissociation Constant (Kd_obs), CAIX.

Here are results for 17 compounds from paper PMC9033141, “Beta and Gamma Amino Acid-Substituted Benzenesulfonamides as Inhibitors of Human Carbonic Anhydrases” (Pharmaceuticals, 2022).

“And” between values parts separate entries of the source, which are not always exact repeats. Equal values may be shown once. Read-outs that look alike come from different tables or passages of the source.
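Throughout, for Observed Dissociation Constant (Kd obs), CAXII: recombinant CAXII made in E. coli, ANS-fluorescence thermal shift with affinity fitted from Tm versus ligand concentration, intrinsic energy from Kd_obs corrected for deprotonated sulfonamide and Zn-water fractions.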

Sequence of CAXIII (Q8N1Q1 whole entry): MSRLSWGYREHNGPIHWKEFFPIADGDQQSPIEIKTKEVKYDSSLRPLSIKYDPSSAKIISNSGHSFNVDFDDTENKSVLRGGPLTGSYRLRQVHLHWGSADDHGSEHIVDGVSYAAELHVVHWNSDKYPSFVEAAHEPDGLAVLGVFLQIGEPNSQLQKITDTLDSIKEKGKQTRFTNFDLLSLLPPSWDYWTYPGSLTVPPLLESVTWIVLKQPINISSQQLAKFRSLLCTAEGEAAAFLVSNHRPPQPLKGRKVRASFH
T1 sequence (O43570 25-354): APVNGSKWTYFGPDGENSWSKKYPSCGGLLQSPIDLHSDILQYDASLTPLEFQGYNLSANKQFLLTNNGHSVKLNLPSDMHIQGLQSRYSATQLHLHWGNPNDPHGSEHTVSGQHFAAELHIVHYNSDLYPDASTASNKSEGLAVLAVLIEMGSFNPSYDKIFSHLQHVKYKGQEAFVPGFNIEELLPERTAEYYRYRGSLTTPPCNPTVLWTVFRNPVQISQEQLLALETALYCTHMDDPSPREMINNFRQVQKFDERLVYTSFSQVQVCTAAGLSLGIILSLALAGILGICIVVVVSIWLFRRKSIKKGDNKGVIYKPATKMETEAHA
Experimental for CAII: (§1) Human CA isozymes were expressed in E. coli (CAI, II, III, IV, VA, VB, VII, XII, XIII, XIV) or mammalian cells (CAVI and CAIX), chromatographically purified following the published protocols [47], and stored at −80 °C. The protein concentration was determined by UV absorption at 280 nm using Beer–Lambert law.
(§2) The QIAGEN Rotor-Gene Q was used to carry out the experiments, with a blue channel used for excitation (365 nm) and detection (460 nm). FTSA in this case relies on an extrinsic probe, 8-anilino-1-naphthalenesulfonate (ANS), to detect the fluorescence increase during protein denaturation, from which protein melting temperature (Tm) can be determined. […] The observed affinity of ligands for CAs was determined by plotting the Tm as a function of ligand concentration and then fitting a curve as described previously [48]. […] Samples were heated from 25 °C to 99 °C at the speed of 1 °C/min.
(§3) The intrinsic thermodynamic parameters were calculated as described in [40]. The intrinsic reaction of inhibitor binding to CA is shown in Equation (1).
(§4) When calculating Kd_int values, these protein and ligand fractions from Equation (1) have to be accounted for (Equations (2) and (3)). The intrinsic dissociation constant is calculated by multiplying Kd_obs value by the corresponding fractions of protein and ligand (Equation (4)). (2) fRSO2NH^−=10^pH−pKa_RSO2NH2/1+10^pH−pKa_RSO2NH2 (3) fCAZnH2O=1−10^pH−pKa_CAZnH2O/1+10^pH−pKa_CAZnH2O (4) Kd_int=Kd_obs×fRSO2NH^−×fCAZnH2O (5) ΔGint0=RTlnKd_int
(§5) The intrinsic standard Gibbs energy changes upon binding were calculated using Equation (5). Here, R—universal ideal gas constant (8.3144 J/mol·K), T—absolute temperature (310.15 K).
Experimental for CAIX: as §1, §2, §3, §4, §5
Experimental for CAXIII: as §1, §2, §3, §4, §5

One may read the melting point as the temperature of the solid-liquid transition. On to `NNC(=O)CC(CNc1ccc(S(N)(=O)=O)cc1)C(=O)NN` (stereo not shown) [Compound 2a, 4-((2-(Hydrazinecarbonyl)-4-hydrazineyl-4-oxobutyl)amino)benzenesulfonamide], for which the melting point is 164 to 165 °C. At CAXIII (Kd_obs), the Kd lay within 0.83 to 130 µM. The same compound returned a Kd at CAXIII (setting [1]) of 130 µM. In addition, on CAXII (setting [2]), the Kd worked out at 71 µM. Besides, the Kd on CAXII (read-out: Kd_obs, CAXII) lay in the range of 0.83 to 130 µM. For the same compound, on CAII (setting [3]), the Kd came out at 14 µM. The Kd on CAII (read-out: Kd_obs, CAII) was 0.83 to 130 µM. The Kd at CAI (setting [4]) was 78 µM. For the same compound, on CAI (read-out: Kd_obs, CAI), the Kd is 0.83 to 130 µM. Besides, the Kd on CAIX (setting [5]) was 4 µM. Also, the Kd on CAIX (read-out: Kd_obs, CAIX) lay in the range of 0.83 to 130 µM.
`NNC(=O)CC(CNc1ccc(S(N)(=O)=O)cc1Cl)C(=O)NN` (stereo not shown) [Compound 2b, 3-Chloro-4-((2-(hydrazinecarbonyl)-4-hydrazineyl-4-oxobutyl)amino)benzenesulfonamide]: the Kd on CAXIII (Kd_obs) was 0.83 to 130 µM; on CAXIII (setting [1]), 6.7 µM; at CAXII (setting [2]), 14 µM; at CAXII (read-out: Kd_obs, CAXII) it was 0.83 to 130 µM; at CAII (setting [3]), 1.3 µM; at CAII (read-out: Kd_obs, CAII), 0.83 to 130 µM. Also, the Kd at CAI (setting [4]) is 6.7 µM; on CAI (read-out: Kd_obs, CAI) it was 0.83 to 130 µM; at CAIX (setting [5]), 0.83 µM; on CAIX (read-out: Kd_obs, CAIX), 0.83 to 130 µM and 0.83 µM.
In the case of `CC(C)=NNC(=O)CC(CNc1ccc(S(N)(=O)=O)cc1)C(=O)NN=C(C)C` (stereo not shown) [Compound 3a, 4-((4-Oxo-2-(2-(propan-2-ylidene)hydrazine-1-carbonyl)-4-(2-(propan-2-ylidene)hydrazineyl)butyl)amino)benzenesulfonamide], the Kd was 100 µM at CAXIII (setting [1]); 110 µM on CAXII (setting [2]); 13 µM on CAII (setting [3]); 170 µM on CAI (setting [4]); 6.7 µM at CAIX (setting [5]).
For `CC(C)=NNC(=O)CC(CNc1ccc(S(N)(=O)=O)cc1Cl)C(=O)NN=C(C)C` (stereo not shown) [Compound 3b, 3-Chloro-4-((4-oxo-2-(2-(propan-2-ylidene)hydrazine-1-carbonyl)-4-(2-(propan-2-ylidene)hydrazineyl)butyl)amino)benzenesulfonamide], in that order: 6.7 µM, 14 µM, 1.8 µM, 10 µM and 0.67 µM.
Compound `CCC(C)=NN1C(=O)CC(CNc2ccc(S(N)(=O)=O)cc2)C1=O` (stereo not shown) [Compound 4a, 4-(((1-(Butan-2-ylideneamino)-2,5-dioxopyrrolidin-3-yl)methyl)amino)benzenesulfonamide] had a melting point of 117 to 118 °C. This compound gave a Kd at CAXIII (setting [1]) of 20 µM. For the same compound, the Kd on CAXII (setting [2]) worked out at 18 µM. Further, the Kd on CAII (setting [3]) amounted to 40 µM. The Kd on CAI (setting [4]) was determined as 18 µM. Moreover, on CAIX (setting [5]), the Kd came out at 2 µM.
`CCC(C)=NN1C(=O)CC(CNc2ccc(S(N)(=O)=O)cc2Cl)C1=O` (stereo not shown) [Compound 4b, 4-(((1-(Butan-2-ylideneamino)-2,5-dioxopyrrolidin-3-yl)methyl)amino)-3-chlorobenzenesulfonamide]: the melting point was 92 to 93 °C. The Kd at CAXIII (setting [1]) was found to be 1.3 µM. The Kd on CAXII (setting [2]) is 4 µM. The Kd on CAII (setting [3]) is 0.33 µM. The Kd at CAI (setting [4]) is 2.9 µM. At CAIX (setting [5]), the Kd was 0.25 µM.
With `CC(=NNC(=O)CC(CNc1ccc(S(N)(=O)=O)cc1)C(=O)NN=C(C)c1ccccc1)c1ccccc1` (stereo not shown) [Compound 5a, 4-((4-Oxo-2-(2-(1-phenylethylidene)hydrazine-1-carbonyl)-4-(2-(1-phenylethylidene)hydrazineyl)butyl)amino)benzenesulfonamide], the melting point is 162 to 163 °C. In addition, the Kd on CAXIII (setting [1]) came to 5 µM. Moreover, at CAXII (setting [2]), the Kd turned out to be 0.5 µM. Moreover, the Kd at CAII (setting [3]) was 1.3 µM. Further, the Kd at CAI (setting [4]) was 8.3 µM. Also, the Kd at CAIX (setting [5]) was 0.59 µM.
In turn, `CC(=NNC(=O)CC(CNc1ccc(S(N)(=O)=O)cc1Cl)C(=O)NN=C(C)c1ccccc1)c1ccccc1` (stereo not shown) [Compound 5b, 3-Chloro-4-((4-oxo-2-(2-(1-phenylethylidene)hydrazine-1-carbonyl)-4-(2-(1-phenylethylidene)hydrazineyl)butyl)amino)benzenesulfonamide] showed a melting point of 158 to 159 °C. Besides, at CAXIII (setting [1]), the Kd was 0.4 µM. Further, the Kd on CAXII (setting [2]) came out at 6.7 µM. The Kd on CAII (setting [3]) stood at 0.25 µM. Besides, at CAI (setting [4]), the Kd came out at 4 µM. Also, the Kd on CAIX (setting [5]) came out at 0.18 µM.
As for `NS(=O)(=O)c1ccc(NCC(CC(=O)NN=Cc2ccccc2)C(=O)NN=Cc2ccccc2)cc1` (stereo not shown) [Compound 6a, 4-((2-(2-(Benzylidene)hydrazine-1-carbonyl)-4-(2-(benzylidene)hydrazineyl)-4-oxobutyl)amino)benzenesulfonamide], the melting point was in the range of 208 to 209 °C. For the same compound, the Kd at CAXIII (setting [1]) was found to be 7.7 µM. In addition, the Kd at CAXII (setting [2]) amounted to 25 µM. The Kd on CAII (setting [3]) amounted to 1.8 µM. The Kd on CAI (setting [4]) amounted to 14 µM. For the same compound, on CAIX (setting [5]), the Kd came to 0.56 µM.
Compound `NS(=O)(=O)c1ccc(NCC(CC(=O)NN=Cc2ccccc2O)C(=O)NN=Cc2ccccc2O)cc1` (stereo not shown) [Compound 7a, 4-((2-(2-(2-Hydroxybenzylidene)hydrazine-1-carbonyl)-4-(2-(2-hydroxybenzylidene)hydrazineyl)-4-oxobutyl)amino)benzenesulfonamide] displayed a melting point of 177 to 178 °C. This compound also registered a Kd at CAXIII (setting [1]) of 10 µM. Further, the Kd at CAXII (setting [2]) worked out at 20 µM. For the same compound, the Kd at CAII (setting [3]) was determined as 2 µM. Also, the Kd on CAI (setting [4]) was 6.7 µM. Moreover, the Kd at CAIX (setting [5]) was 0.5 µM.
Regarding `NS(=O)(=O)c1ccc(NCC(CC(=O)NN=Cc2ccccc2O)C(=O)NN=Cc2ccccc2O)c(Cl)c1` (stereo not shown) [Compound 7b, 3-Chloro-4-((2-(2-(2-hydroxybenzylidene)hydrazine-1-carbonyl)-4-(2-(2-hydroxybenzylidene)hydrazineyl)-4-oxobutyl)amino)benzenesulfonamide], the melting point was in the range of 204 to 205 °C. This compound came in with a Kd at CAXIII (setting [1]) of 0.17 µM. For the same compound, the Kd at CAXII (setting [2]) stood at 5 µM. At CAII (setting [3]), the Kd is 0.17 µM. The Kd at CAI (setting [4]) is 1 µM. For the same compound, the Kd on CAIX (setting [5]) worked out at 0.067 µM.
In turn, `NS(=O)(=O)c1ccc(NCC(CC(=O)NN=Cc2cccc(O)c2)C(=O)NN=Cc2cccc(O)c2)cc1` (stereo not shown) [Compound 8a, 4-((2-(2-(3-Hydroxybenzylidene)hydrazine-1-carbonyl)-4-(2-(3-hydroxybenzylidene)hydrazineyl)-4-oxobutyl)amino)benzenesulfonamide] came in with a melting point of 192 to 193 °C. The same compound showed a Kd at CAXIII (setting [1]) of 5 µM. Also, the Kd on CAXII (setting [2]) is 33 µM. At CAII (setting [3]), the Kd was 2 µM. The Kd on CAI (setting [4]) was found to be 10 µM. At CAIX (setting [5]), the Kd amounted to 0.67 µM.
In turn, `NS(=O)(=O)c1ccc(NCC(CC(=O)NN=Cc2cccc(O)c2)C(=O)NN=Cc2cccc(O)c2)c(Cl)c1` (stereo not shown) [Compound 8b, 3-Chloro-4-((2-(2-(3-hydroxybenzylidene)hydrazine-1-carbonyl)-4-(2-(3-hydroxybenzylidene)hydrazineyl)-4-oxobutyl)amino)benzenesulfonamide] had a melting point of 119 to 120 °C. The Kd on CAXIII (setting [1]) came out at 0.2 µM. At CAXII (setting [2]), the Kd was determined as 20 µM. Moreover, the Kd at CAII (setting [3]) was 0.25 µM. Moreover, on CAI (setting [4]), the Kd was 1 µM. Further, the Kd at CAIX (setting [5]) came to 0.1 µM.
Compound `NS(=O)(=O)c1ccc(NCC(CC(=O)NN=Cc2ccc(O)cc2)C(=O)NN=Cc2ccc(O)cc2)cc1` (stereo not shown) [Compound 9a, 4-((2-(2-(4-Hydroxybenzylidene)hydrazine-1-carbonyl)-4-(2-(4-hydroxybenzylidene)hydrazineyl)-4-oxobutyl)amino)benzenesulfonamide] had a melting point of 186 to 187 °C. On CAXIII (setting [1]), the Kd worked out at 4.3 µM. For the same compound, the Kd on CAXII (setting [2]) came out at 25 µM. On CAII (setting [3]), the Kd turned out to be 1.3 µM. On CAI (setting [4]), the Kd was found to be 5.9 µM. Also, at CAIX (setting [5]), the Kd was determined as 0.5 µM.
Take `NS(=O)(=O)c1ccc(NCC(CC(=O)NN=Cc2ccccc2Cl)C(=O)NN=Cc2ccccc2Cl)cc1` (stereo not shown) [Compound 10a, 4-((2-(2-(2-Chlorobenzylidene)hydrazine-1-carbonyl)-4-(2-(2-chlorobenzylidene)hydrazineyl)-4-oxobutyl)amino)benzenesulfonamide]: the melting point lay within 174 to 175 °C. The same compound had a Kd on CAXIII (setting [1]) of 1.7 µM. Further, the Kd on CAXII (setting [2]) came out at 50 µM. Also, on CAII (setting [3]), the Kd stood at 2.5 µM. The Kd on CAI (setting [4]) was determined as 17 µM. In addition, on CAIX (setting [5]), the Kd was found to be 0.5 µM.
`NS(=O)(=O)c1ccc(NCC(CC(=O)NN=Cc2ccccc2Cl)C(=O)NN=Cc2ccccc2Cl)c(Cl)c1` (stereo not shown) [Compound 10b, 3-Chloro-4-((2-(2-(2-chlorobenzylidene)hydrazine-1-carbonyl)-4-(2-(2-chlorobenzylidene)hydrazineyl)-4-oxobutyl)amino)benzenesulfonamide] returned a melting point of 203 to 204 °C. Besides, on CAXIII (setting [1]), the Kd is 0.13 µM. Besides, on CAXII (setting [2]), the Kd was 50 µM. Also, on CAII (setting [3]), the Kd turned out to be 0.33 µM. Besides, the Kd on CAI (setting [4]) is 1.7 µM. Besides, the Kd on CAIX (setting [5]) came to 0.13 µM.
For `NS(=O)(=O)c1ccc(NCC(CC(=O)NN=Cc2cccc(Cl)c2)C(=O)NN=Cc2cccc(Cl)c2)cc1` (stereo not shown) [Compound 11a, 4-((2-(2-(3-Chlorobenzylidene)hydrazine-1-carbonyl)-4-(2-(3-chlorobenzylidene)hydrazineyl)-4-oxobutyl)amino)benzenesulfonamide], the melting point lay in the range of 190 to 191 °C. Besides, the Kd on CAXIII (setting [1]) was 5 µM. The Kd on CAXII (setting [2]) was 100 µM. For the same compound, the Kd at CAII (setting [3]) is 3.3 µM. In addition, at CAI (setting [4]), the Kd turned out to be 20 µM. For the same compound, the Kd on CAIX (setting [5]) came to 1 µM.
